Data published in patent publication US20190290631A1, “PHARMACEUTICAL COMPOSITION COMPRISING RAPAMYCIN OR DERIVATIVE THEREOF” (NIPPON KAYAKU KABUSHIKI KAISHA, priority 2016, published 2019).

Assay: Purity of everolimus in ethanol solution
Type: physicochemical
Conditions: dissolved in ethanol, 3 hours/25° C.
Method: However, since an aqueous solution of a coating agent needs to be used in order to prepare such a film-coated tablet, the aforementioned method cannot be applied to drugs having low chemical stability against aqueous solvents. […] For example, everolimus as a rapamycin derivative has physical properties, by which when it is dissolved in ethanol to prepare an ethanol solution thereof, its purity is decreased by 4% or more under conditions of 3 hours/25° C. As such, it is not preferable that a film coating technique involving the use of an aqueous solvent be applied, as a pharmaceutical formulation of light-resistant preparations, to a pharmaceutical product tablet comprising, as an active ingredient, rapamycin and a derivative thereof.

decrease in purity in ethanol solution: ≥ 4%
Compound: CO[C@H]1C[C@@H]2CC[C@@H](C)[C@@](O)(O2)C(=O)C(=O)N2CCCC[C@H]2C(=O)O[C@H]([C@H](C)C[C@@H]2CC[C@@H](OCCO)[C@H](OC)C2)CC(=O)[C@H](C)/C=C(\C)[C@@H](O)[C@@H](OC)C(=O)[C@H](C)C[C@H](C)/C=C/C=C/C=C/1C [everolimus, 40-O-(2-hydroxyethyl)rapamycin]
